Reference: ChEMBL document CHEMBL1201862, “PubChem BioAssay data set” (2004)
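Tested at 5 concentrations; 48 h exposure; 96-well plates; endpoints linearly interpolated, else capped at highest concentration. GI50 = concentration required for 50% inhibition of growth.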 Calls of active or inactive are those of the source. Cut-off read from the data, not from the text of the source: active = GI50 up to about 1.1 µM and inactive = higher.

Experiments:
Assay in all cases: growth of human tumour cells (NCI), 48 h
A549 = system: A549
ACHN = system: ACHN
HCT-116 = system: HCT-116
HOP-62 = system: HOP-62
HOP-92 = system: HOP-92
HT-29 = system: HT-29
IGROV-1 = system: IGROV-1
K562 = system: K562
Malme-3M = system: Malme-3M
NCI-H23 = system: NCI-H23
OVCAR-8 = system: OVCAR-8
RPMI-8226 = system: RPMI-8226
SK-MEL-28 = system: SK-MEL-28
SK-MEL-5 = system: SK-MEL-5
SK-OV-3 = system: SK-OV-3
SW-620 = system: SW-620
TK-10 = system: TK-10
UACC-62 = system: UACC-62
LOX IMVI = system: LOX IMVI

Measured: GI50

CCOC(=O)CSC1NC(C(=O)OC)CC1OC (centres undefined)
inactive: A549 > 100 µM | ACHN > 100 µM | HCT-116 > 100 µM | HOP-62 > 100 µM | HOP-92 > 100 µM | HT-29 > 100 µM | IGROV-1 > 100 µM | K562 > 100 µM | Malme-3M > 100 µM | NCI-H23 > 100 µM | OVCAR-8 > 100 µM | RPMI-8226 > 100 µM | SK-MEL-28 > 100 µM | SK-MEL-5 > 100 µM | SK-OV-3 > 100 µM | SW-620 > 100 µM | TK-10 > 100 µM | UACC-62 > 100 µM

COc1ccc([C@@H]2C[C@@H]3C(=O)OC(=O)[C@@H]3c3c2c2ccccc2n3C)cc1
inactive: A549 > 100 µM | HCT-116 > 100 µM | HOP-62 > 100 µM | HOP-92 > 100 µM | HT-29 > 100 µM | IGROV-1 > 100 µM | K562 > 100 µM | Malme-3M > 100 µM | NCI-H23 > 100 µM | OVCAR-8 > 100 µM | RPMI-8226 > 100 µM | SK-MEL-28 > 100 µM | SK-OV-3 > 100 µM | SW-620 > 100 µM | TK-10 > 100 µM | UACC-62 > 100 µM

Nc1c(-c2ccc(Cl)cc2)[n+]([O-])c2ccccc2[n+]1[O-]
inactive: A549 > 100 µM | ACHN 57.1 µM | HOP-62 > 100 µM | HOP-92 28.1 µM | HT-29 > 100 µM | IGROV-1 > 100 µM | K562 49.3 µM | LOX IMVI > 100 µM | Malme-3M > 100 µM | NCI-H23 54.6 µM | OVCAR-8 > 100 µM | RPMI-8226 34.5 µM | SK-MEL-28 76.9 µM | SK-MEL-5 > 100 µM | SK-OV-3 > 100 µM | SW-620 > 100 µM | TK-10 > 100 µM | UACC-62 > 100 µM

C/C(=N/O)C1CC=C(S(=O)(=O)c2ccccc2)C1 (centres undefined)
inactive: A549 > 100 µM | ACHN > 100 µM | HOP-62 > 100 µM | HOP-92 > 100 µM | HT-29 > 100 µM | IGROV-1 > 100 µM | K562 > 100 µM | LOX IMVI > 100 µM | Malme-3M > 100 µM | NCI-H23 > 100 µM | OVCAR-8 > 100 µM | RPMI-8226 > 100 µM | SK-MEL-28 > 100 µM | SK-OV-3 > 100 µM | SW-620 > 100 µM | TK-10 > 100 µM | UACC-62 > 10 µM

O=C1C2=C(CC3C(C2)C3(Br)Br)C(=O)C2=C1CC1C(C2)C1(Br)Br (centres undefined)
inactive: A549 > 100 µM | ACHN > 100 µM | HCT-116 > 100 µM | HOP-62 > 100 µM | HOP-92 > 100 µM | HT-29 > 100 µM | IGROV-1 > 100 µM | K562 > 100 µM | LOX IMVI 82.4 µM | Malme-3M > 100 µM | NCI-H23 > 100 µM | OVCAR-8 > 100 µM | SK-MEL-28 > 100 µM | SK-MEL-5 > 100 µM | SK-OV-3 > 100 µM | TK-10 > 100 µM | UACC-62 > 100 µM

O=C1C(=O)N(c2ccc(Cl)cc2Cl)C(=O)C(=O)C1c1nc2ccccc2o1
inactive: A549 > 100 µM | ACHN > 100 µM | HCT-116 > 100 µM | HOP-62 > 100 µM | HOP-92 > 100 µM | HT-29 > 100 µM | IGROV-1 > 100 µM | K562 > 100 µM | Malme-3M > 100 µM | NCI-H23 > 100 µM | OVCAR-8 > 100 µM | RPMI-8226 > 100 µM | SK-MEL-28 > 100 µM | SK-MEL-5 > 100 µM | SK-OV-3 > 100 µM | SW-620 > 100 µM | TK-10 > 100 µM | UACC-62 > 100 µM

CC1=C(c2cc(C(=O)Nc3ccc(Cl)cc3)nc(S)n2)Sc2ccccc2N1
inactive: A549 > 100 µM | ACHN > 100 µM | HCT-116 > 100 µM | HOP-62 > 100 µM | HOP-92 > 100 µM | HT-29 > 100 µM | IGROV-1 > 100 µM | K562 > 100 µM | LOX IMVI > 100 µM | Malme-3M > 100 µM | NCI-H23 > 100 µM | OVCAR-8 > 100 µM | SK-MEL-28 > 100 µM | SK-MEL-5 > 100 µM | SK-OV-3 > 100 µM | SW-620 > 100 µM | TK-10 > 100 µM | UACC-62 > 100 µM

CCOC(=O)/C(=C\NC[C@@H](C)O)c1nc2ccccc2[nH]1
inactive: A549 62.4 µM | ACHN 32.4 µM | HCT-116 > 100 µM | HOP-62 > 100 µM | HOP-92 72.9 µM | HT-29 71.3 µM | IGROV-1 37.8 µM | LOX IMVI 96.8 µM | Malme-3M > 100 µM | NCI-H23 54.5 µM | OVCAR-8 64 µM | RPMI-8226 29.1 µM | SK-MEL-28 57.3 µM | SK-MEL-5 29.5 µM | SK-OV-3 > 100 µM | SW-620 > 100 µM | TK-10 54.2 µM | UACC-62 40.9 µM

CC1=NN(c2ccccc2)C(=O)C1/N=N/c1ccc(Br)c(C)c1 (centres undefined)
inactive: A549 > 100 µM | ACHN > 100 µM | HCT-116 > 100 µM | HOP-62 > 100 µM | HOP-92 > 100 µM | HT-29 > 100 µM | IGROV-1 > 100 µM | K562 > 100 µM | Malme-3M > 100 µM | NCI-H23 > 100 µM | OVCAR-8 > 100 µM | RPMI-8226 > 100 µM | SK-MEL-28 > 100 µM | SK-MEL-5 > 100 µM | SK-OV-3 > 100 µM | SW-620 > 100 µM | TK-10 > 100 µM | UACC-62 > 100 µM

NC1=NCCC1(c1ccccc1)c1ccccn1 (centres undefined)
inactive: A549 > 100 µM | ACHN > 100 µM | HCT-116 > 100 µM | HOP-62 > 100 µM | HOP-92 > 100 µM | HT-29 > 100 µM | IGROV-1 > 100 µM | K562 > 100 µM | Malme-3M > 100 µM | NCI-H23 > 100 µM | OVCAR-8 > 100 µM | RPMI-8226 > 100 µM | SK-MEL-28 > 100 µM | SK-MEL-5 > 100 µM | SK-OV-3 > 100 µM | SW-620 > 100 µM | TK-10 > 100 µM | UACC-62 > 100 µM

NC1=NC2=C(CCCC2)C(c2cccs2)S1 (centres undefined)
inactive: A549 93.3 µM | ACHN > 100 µM | HCT-116 > 100 µM | HOP-62 > 100 µM | HOP-92 47.8 µM | HT-29 > 100 µM | IGROV-1 > 100 µM | K562 56.9 µM | Malme-3M 92.9 µM | NCI-H23 > 100 µM | OVCAR-8 > 100 µM | RPMI-8226 61.7 µM | SK-MEL-28 > 100 µM | SK-MEL-5 54.5 µM | SK-OV-3 > 100 µM | SW-620 > 100 µM | TK-10 > 100 µM | UACC-62 > 100 µM
